Consider six compounds from patent US6887895B2, “Pseudolaric acid-B derivatives, their preparation and pharmaceutical compositions” (Shanghai Institute of Materia Medica Chinese Academy of …, priority 2001, dated 2005).

Data set [1] has as its system A549 human lung adenocarcinoma cells. The data set can be described thus: A549 proliferation assay (SRB). The data set is classed as cell-based. How it is done:
(§1) To evaluate the anti-tumor pharmacological activity of the compounds of the invention, the anti-proliferation activity thereof was assayed using P388 murin leukemia cells and A549 human lung adenocarcinoma cells; the anti-angiogenic activity, a newer target of antitumor, was measured using human microvascular endothelial cells (HMEC). Pseudolarix acid-B and hydroxycamptothecin were used as reference compounds in the evaluation.
(§2) P388, A549 and HMEC Proliferation Assay
(§3) Materials: DMEM was purchased from Gibco (Life Technologies, Grand Island, N.Y., USA). Sulforodamine B (SRB) and MTT were obtained from Sigma; TCA […] and Tris base buffer were analytical pure products made in China.
(§4) SRB assay: Tumor (A549 and HMEC) cells in logarithmic growth were plated in DMEM media in the wells of a 96-well plate (5×10^3 cells/90 μL/well) and serial dilutions of the compounds (10 μL) prepared in medium were added. Experiments at each concentration of compounds were performed in triplicate with controls of normal saline and cell-free withered wells. The plates were incubated at 37° C., 5% CO2, for 72 hr. The media were decanted and cells were fixed with cold (4° C.) 10% trichloroacetic acid, followed by incubation at 4° C. for 1 hr. Then plates were washed with deionised water five times and allowed to air dry and stained by addition of 100 μL/well SRB solution [0.4% SRB (Sigma) in 1% acetic acid (W/V)] for 15 min. Following staining, plates were quickly washed five times with 1% acetic acid to remove unbound dye, and allowed to air dry. Bound dye was solubilized with Tris buffer (pH 10.5) prior to reading plates. The OD was measured with a multiwell spectrophotometer (VERSAmax, Molecular Devices, USA) at a wavelength of 520 nm.
(§5) The rate of inhibition on the growth of cancer cells was calculated by the formula: Rate of growth inhibition=[1−(A520 treated/A520 control)]×100%
(§6) The result was also expressed as IC50 (the drug concentration reducing by 50% the absorbance in treated cells, with respect to untreated cells) that was calculated by Logit method. The mean IC50 was determined according to the data from three independent tests.

The subject of data set [2] is P388 murin leukemia cells. The data set can be described thus: P388 proliferation assay (MTT). Format: cell-based, murine. The method, then: as §1, §2, §3
MTT assay: P388 cells were seeded at a density of 1.5×10^5/ml into wells of 96-well plates and incubated with complete medium. After 24 hr, serial dilutions of the compounds (10 μL) prepared in medium were added. Experiments at each concentration of compounds were performed in triplicate with controls of cell-free withered wells and cell-free withered wells at corresponding concentration of compounds, if it is colored. The plates were incubated at 37° C., 5% CO2, for 48 hr. Then, 20 μL aliquots of MTT (Sigma) solution (5 mg/mL) in saline were added directly to all the appropriate wells. The culture was continuously incubated for 4 hr. Then 50 μL “triplex solution” (10% SDS-5% isobutanol- 0.01M HCl) was added into each well. After the plates were incubated at 37° C. overnight, the values of absorbance at 520 nm were measured by using a plate reader (VERSA Max, Molecular Devices).
as §5, §6

A short description of data set [3]: Body weight of Sarcoma 180-bearing mice under treatment. Format: in vivo, Kunming strain female mice. How it is done: (§7) 30 Kunming strain female mice weighing 18-22 g were used. Suspensions of well grown Sarcoma 180 cell were implanted subcutaneously into the right axilla region of the mice, about 4.5-5×10^6 cells/mouse. The animals were grouped randomly 24 hours after the implantation. Daily treatment with drugs or normal saline commenced 1 day after implantation of S-180 cells. Mice were administered by i.p. injection with vehicle or compounds once a day for consecutive 6 days. All the mice were euthanized after the last administration. The mice and the tumors were weighed. The average weights of tumors of each group were calculated and rate of inhibition of tumor growth in vivo was calculated using the following formula: [formula]

The test system of data set [4] is Sarcoma 180 cell. The data set can be described thus: Sarcoma 180 tumor growth inhibition in mice. Format: in vivo, Kunming strain female mice. The settings on record: for Tumor weight: S-180 mice; for Inhibition %: tumor growth vs control. How it is done: as §7
Data set [5] deals with Candida albicans. The data set can be described thus: Antifungal screening, liquid diluting method. The data set is classed as cell-based. From the text:
Screening on Antifungal Activities The action on Candida albicans was observed using liquid diluting method. The drug concentration in the tube in which no growth of fungus observed is the minimun inhibition concentration.

Data set [6] deals with Trichophyton rubrum. Briefly: Antifungal screening, agar diluting method. The data set is classed as cell-based. From the text:
Screening on Antifungal Activities
The action on Trichophyton rubrum was observed using agar diluting method. The drug concentration in the Petridish on which no growth of fungus observed is the minimun inhibition concentration.

The test system of data set [7] is human microvascular endothelial cells (HMEC). The data set can be described thus: HMEC proliferation assay (SRB), anti-angiogenic activity. The data set is classed as cell-based. How it is done: as §1, §2, §3, §4, §5
The result was also expressed as IC50 (the drug concentration reducing by 50% the absorbance in treated cells, with respect to untreated cells) that was calculated by Logit method. […]

The mark [8] stands for this setting: Homo sapiens, A549 cells, SRB, 72 hr, read-out: IC50.
Setting [9] is: Mus musculus, P388 cells, MTT, 48 hr, read-out: IC50.
The mark [10] stands for this setting: 5 mg/kg i.p. once a day for 6 days.
Setting [11] is: 10 mg/kg i.p. once a day for 6 days.
Setting [12] is: 15 mg/kg i.p. once a day for 6 days.

pIC50: −log10 of the molar value. Converted amounts (≈) assume the structure as drawn. Read-outs that look alike come from different tables or passages of the source.

As to `COC(=O)C1=CC[C@]23CC[C@H](C(C)(/C=C/C=C(\C)C(=O)Nc4cccc(O)c4)OC2=O)[C@]3(OC(C)=O)CC1` (stereo partly shown) [PEX-15Y], the pIC50 (usually the IC50 on a negative log10 scale, so that one unit is a factor of ten) in data set [1] (setting [8]) was 6.82.
With `COC(=O)C1=CC[C@]23CC[C@H](C(C)(/C=C/C=C(\C)C(=O)O)OC2=O)[C@]3(OC(=O)Cc2ccc(Cl)cc2)CC1` (stereo partly shown) [PEX-24Y], the negative-log IC50 (pIC50) in data set [2] (setting [9]) is 9.59; in data set [1] (setting [8]) it was 7.16.
As for `CC(=O)O[C@@]12CCC(C(=O)OCc3ccco3)=CC[C@@]13CC[C@@H]2C(C)(/C=C/C=C(\C)C(=O)O)OC3=O` (stereo partly shown) [PEX-25Y], the pIC50 in data set [2] (setting [9]) was over 10.00; in data set [1] (setting [8]), 7.26; in data set [7] (Homo sapiens, HMEC cells, SRB, 72 hr, read-out: IC50), 9.00. For the same compound, the “Body weight (g) At last” value in data set [3] (5 mg/kg i.p. once a day for 6 days, beginning 20.4 g) is 21.1 g; in data set [3] (10 mg/kg i.p. once a day for 6 days, beginning 20.4 g) it was 19.7 g; in data set [3] (15 mg/kg i.p. once a day for 6 days, beginning 20.5 g), 21.2 g. The entries for the “Tumor weight” value in data set [4] (setting [10]), in data set [4] (setting [11]) and in data set [4] (setting [12]) were 0.30 ± 0.23 g, 0.26 ± 0.11 g and 0.28 ± 0.13 g, respectively. The Inhibition % in data set [4] (setting [10]) stood at 64.3%; in data set [4] (setting [11]), 69.0%; in data set [4] (setting [12]), 66.7%. Besides, the MIC is 6.25 µg/mL (≈ 12.5 µM) in data set [5] (Candida albicans, read-out: MIC (μg/ml) (Candida albicans)) and 12.5 µg/mL (≈ 25.1 µM) in data set [6] (Trichophyton rubrum, read-out: MIC (μg/ml) (Trichophyton rubrum)).
Consider `CC(=O)O[C@@]12CCC(C(=O)OCC3CCCCC3)=CC[C@@]13CC[C@@H]2C(C)(/C=C/C=C(\C)C(=O)O)OC3=O` (stereo partly shown) [PEX-31Y], for which the pIC50 is over 10.00 in data set [2] (Mus musculus, P388, 48 h) and over 10.00 in data set [1] (Homo sapiens, A549, 72 h).
For the compound `COC(=O)C1=CC[C@@]23CC[C@@H]([C@@](C)(/C=C/C=C(\C)C(=O)O)OC2=O)[C@@]3(OC(C)=O)CC1` [Pseudolarix acid-B, pseudolaric acid B, reference compound], the pIC50 in data set [2] (P388 cells, MTT, 48 hr, read-out: IC50) was 9.08; in data set [1] (A549 cells, SRB, 72 hr, read-out: IC50) it was 7.55; in data set [7] (HMEC cells, SRB, 72 hr, read-out: IC50), 7.10. The “MIC (μg/ml) (Candida albicans)” value in data set [5] was 12.5 µg/mL (≈ 28.9 µM). In addition, in data set [6], the “MIC (μg/ml) (Trichophyton rubrum)” value is 50.0 µg/mL (≈ 116 µM).
In data set [7] (Homo sapiens, HMEC, 72 h), `CC[C@@]1(O)C(=O)OCc2c1cc1n(c2=O)Cc2cc3cc(O)ccc3nc2-1` [hydroxycamptothecin] gave a pIC50 of 6.33.
